Experiments:
c-kit [1] = assay: FACS-based c-kit degradation assay in Kasumi-1 cells; assay type: cell-based; settings: about 18 h
Experimental: Leukemia cell line, Kasumi-1, was used for testing c-kit degradation induced by Hsp90 inhibitors of the invention. The cells (3×10^5 per well) were treated with 17AAG (0.5 μM) or Compound 11 (0.05 μM or 0.5 μM) for about 18 h. The cells were collected and centrifuged (SORVALL RT 6000D) at 1200 rpm for 5 min. The supernatants were discarded, and the cells were washed one time with 1×PBS. After centrifugation the cells were stained with FITC conjugated c-kit antibody (MBL International, Cat# K0105-4) in […] 1×PBS at 4° C. for 1 h. The samples were read and analyzed with FACSCalibur flow cytometer (Becton Dicknson).

c-kit [2] = assay: Western blot analysis of c-Kit in Kasumi-1 cells; assay type: cell-based
Experimental: The results of the FACS analysis were confirmed with Western blot analysis (see FIG. 2). […] In contrast, 17-AAG had no effect of c-Kit protein levels at either 100 nM or 400 nM.

Her2 = assay: Degradation of Her2 in BT-474 cells (Method 1, Western blot); assay type: cell-based, human; settings: 0.5 μM, overnight
Experimental: Human high-Her2 breast carcinoma BT474 (HTB-20), SK-BR-3 (HTB-30) and MCF-7 breast carcinoma (HTB-22) from American Type Culture Collection, VA, USA were grown in Dulbecco's modified Eagle's medium with 4 mM L-glutamine and antibiotics (100 IU/ml penicillin and 100 ug/ml streptomycine; GibcoBRL). To obtain exponential cell growth, cells were trypsinized, counted and seeded at a cell density of 0.5×10^6 cells /ml regularly, every 3 days. All experiments were performed on day 1 after cell passage.
BT-474 cells are treated with 0.5 μM, 2 μM, or 5 μM of 17AAG (a positive control) or 0.5 μM, 2 μAM, or 5 μM of a compound of the invention overnight in DMEM medium. After treatment, each cytoplasmic sample is prepared from 1×10^6 cells by incubation of cell lysis buffer (#9803, cell Signaling Technology) on ice for 10 minutes. The resulting supernatant used as the cytosol fractions is dissolved with sample buffer for SDS-PAGE and run on a SDS-PAGE gel, blotted onto a nitrocellulose membrane by using semi-dry transfer. Non-specific binding to nitrocellulose is blocked with 5% skim milk in TBS with 0.5% Tween at room temperature for 1 hour, then probed with anti-Her2/ErB2 mAb (rabbit IgG, #2242, Cell Signaling) and anti-Tubulin (T9026, Sigmna) as housekeeping control protein. […]

Compound | c-kit degradation (FACS) (c-kit [1]; 0.05 μM) | c-kit degradation (FACS) (c-kit [1]; 0.5 μM) | Degradation of c-Kit (Western blot) (c-kit [2]; 100 nM) | Degradation of c-Kit (Western blot) (c-kit [2]; 400 nM) | Degradation of Her2 (Her2)
CCCN(C)c1cc(-n2c(S)nnc2-c2cc(C(C)C)c(O)cc2O)ccc1OC [Compound 11, 4-(4-(3-(N-methyl-N-propylamino)-4-methoxyphenyl)-5-mercapto-4H-1,2,4-triazol-3-yl)-6-isopropylbenzene-1,3-diol] | induced c-kit degradation | induced c-kit degradation | induced the degradation of c-Kit | induced the degradation of c-Kit | 
CCN(C)c1cc(-n2c(S)nnc2-c2cc(C(C)C)c(O)cc2O)ccc1OC [Compound 12, 4-(4-(3-(N-methyl-N-ethylamino)-4-methoxy-phenyl)-5-mercapto-4H-1,2,4-triazol-3-yl)-6-isopropylbenzene-1,3-diol] |  |  | induced the degradation of c-Kit | induced the degradation of c-Kit | 
C=CCNC1=C2C[C@@H](C)C[C@H](OC)[C@H](O)[C@@H](C)/C=C(\C)[C@H](OC(N)=O)[C@@H](OC)/C=C\C=C(/C)C(=O)NC(=CC1=O)C2=O [Compound 17AAG, reference compound] |  | could not induce c-kit degradation | no effect | no effect | partial degradation of Her2
